Tested on: inflammatory acne of the face
Test: Clinical trial in patients with inflammatory acne of the face
Type: in vivo, human patients
Conditions: 10 patients 14 to 23 years old; benzoyl peroxide 4 cases, erythromycin 3 cases, nicotinamide gel 3 cases
Source text: The composition used is a gel in accordance with that whose composition is given in example 2.

Row | Compound | improvement of acne with conventional treatment
1 | O=C(OOC(=O)c1ccccc1)c1ccccc1 [benzoyl peroxide] | no notable improvement
2 | CC[C@H]1OC(=O)[C@H](C)[C@@H](O[C@H]2C[C@@](C)(OC)[C@@H](O)[C@H](C)O2)[C@H](C)[C@@H](O[C@@H]2O[C@H](C)C[C@H](N(C)C)[C@H]2O)[C@](C)(O)C[C@@H](C)C(=O)[C@H](C)[C@@H](O)[C@]1(C)O [erythromycin] | no notable improvement

— US20040170591A1, “Dermatological composition comprising nicotinic acid or an amide, and a sphingoid base” (priority 2001, published 2004)
